Test results: patent US8163753B2, “2,3-dihydro-6-nitroimidazo (2,1-b) oxazole compounds for the treatment of tuberculosis” (priority 2003, dated 2012)
≈ marks a conversion by molar mass, not a printed value.

Experiments:
[1] = system: M. tuberculosis Kurono; test: Antibacterial test, agar-plate dilution method (minimum inhibitory concentration), Test Example 2; assay type: cell-based; settings: 7H11 agar medium, 37° C. for 14 days; for MIC: Mycobacterium tuberculosis, 336 h
[2] = system: Mycobacterium tuberculosis (H37Rv strain); settings: in vitro, literature report; cited from earlier work
[3] = system: M. avium; settings: used at 250 μg/ml or less; cited from earlier work
[4] = system: M. intracellulare; settings: used at 250 μg/ml or less; cited from earlier work
[5] = system: M. fortuitum; settings: used at 250 μg/ml or less; cited from earlier work

Row | Compound | melting point | also measured
1 | C[C@]1(COc2ccc(N3CCC(CC=Cc4ccc(C(F)(F)F)cc4)CC3)cc2)Cn2cc([N+](=O)[O-])nc2O1 [Example 8, (R)-2-methyl-6-nitro-2-(4-(4-(3-(4-trifluoromethyphenyl)-2-propenyl)piperidine-1-yl)phenoxymethyl)-2,3-dihydroimidazo[2,1-b]oxazole] |  | Minimum Inhibitory Concentration [1]: 0.006 µg/mL
2 | C[C@]1(COc2ccc3nc(N4CCN(Cc5ccc(OC(F)(F)F)cc5)CC4)sc3c2)Cn2cc([N+](=O)[O-])nc2O1 [Example 1, (R)-2-methyl-6-nitro-2-(2-(4-(4-trifluoromethoxybenzyl)-piperazine-1-yl)benzothiazole-6-yloxymethyl)-2,3-dihydroimidazo[2,1-b]oxazole] | 205.6 to 207.4 °C | MIC [1]: 0.2 µg/mL (≈ 0.339 µM)
3 | C[C@]1(COc2ccc(N3CCN(CCOc4ccc(OC(F)(F)F)cc4)CC3)cc2)Cn2cc([N+](=O)[O-])nc2O1 [Example 9, (R)-2-methyl-6-nitro-2-(4-(4-(2-(4-trifluoromethoxyphenoxy)ethyl)piperazine-1-yl)phenoxymethyl)-2,3-dihydroimidazo[2,1-b]oxazole] |  | MIC [1]: 0.012 µg/mL (≈ 0.0213 µM)
4 | CCC1Cn2cc([N+](=O)[O-])nc2O1 (stereo not drawn) [CGI-17341] |  | bactericidal action to Mycobacterium tuberculosis (H37Rv strain) [2]: has a bactericidal action; activity to M. avium [3]: does not have the activity; activity to M. intracellulare [4]: does not have the activity; activity to M. fortuitum [5]: does not have the activity
5 | C[C@]1(COc2ccc(N3CCC(OCc4ccc(OC(F)(F)F)cc4)CC3)cc2)Cn2cc([N+](=O)[O-])nc2O1 | 214.3 to 217.7 °C | 
6 | CC1(Cc2ccc(N3CCC(Oc4ccc(OC(F)(F)F)cc4)CC3)cc2)Cn2cc([N+](=O)[O-])nc2O1 (stereo not drawn) | 184.9 to 186.8 °C | 
7 | CN(CCOc1ccc(OC(F)(F)F)cc1)C1CCN(c2ccc(OC[C@@]3(C)Cn4cc([N+](=O)[O-])nc4O3)cc2)CC1 | 185.7 to 187.7 °C | 
8 | C[C@]1(COc2ccc(N3CCC(COc4ccc(-c5ccccc5)cc4)CC3)cc2)Cn2cc([N+](=O)[O-])nc2O1 | 245 °C (dec.) | 
9 | C[C@]1(COc2ccc(N3CCC(N4CCN(c5ccc(Cl)cc5)CC4)CC3)cc2)Cn2cc([N+](=O)[O-])nc2O1 | 247 to 249 °C | 
10 | C[C@]1(COc2ccc(N3CCC(COC4CCCCO4)CC3)cc2)Cn2cc([N+](=O)[O-])nc2O1 (stereo partly drawn) | 217.6 to 218.6 °C | 
11 | C[C@]1(COc2ccc(N3CCC(CCOCc4ccc(Cl)cc4)CC3)cc2)Cn2cc([N+](=O)[O-])nc2O1 | 197.6 to 198.2 °C | 
